Measurements taken from patent US20170253601A1, “Substituted Pyrrolidine Compounds” (EPIZYME, INC., priority 2014, published 2017).

Biological target: T1, SMYD2 (Homo sapiens, UniProt Q9NRG4)
T1 construct: Full length SMYD2 (NP 064582.2) was cloned; His6 (N, cleaved yes); FLAG (N); made in house; host or cells: Sf9 insect cells
Assay: SMYD2 Biochemical Assay (3H-SAM, biotinylated peptide substrate, Flashplate)
Conditions: IC50 values are an average of n = 1 to n = 50; read-out: SMYD2 Biochem IC50 (μM)*
Text: S-adenosylmethionine (SAM), S-adenosylhomocysteine (SAH), bicine, Tween20, dimethylsulfoxide (DMSO), bovine skin gelatin (BSG), and Tris(2-carboxyethyl)phosphine hydrochloride (TCEP) were purchased from Sigma-Aldrich at the highest level of purity possible. ^3H-SAM was purchase from American Radiolabeled Chemicals with a specific activity of 80 Ci/mmol. 384-well streptavidin Flashplates were purchased from PerkinElmer.
Peptide was synthesized with a N-terminal linker-affinity tag motif and a C-terminal amide cap by 21st Century Biochemicals. The peptide was high-performance liquid chromatography (HPLC) purified to greater than 95% purity and confirmed by liquid chromatography mass spectrometry (LC-MS). The sequence was […](K-Biot)-amide. (SEQ ID No: 3)
Full length SMYD2 (NP 064582.2) was cloned into a pFastbac-Htb-lic vector with an N-terminal His6 tag and FLAG tag, preceded by a TEV protease cleavage site. The protein was expressed in Sf9 insect cells. Cells were resuspended in lysis buffer (25 mM HEPES-NaOH, pH 7.5, 200 mM NaCl, 5% glycerol, and 5 mM β-ME) and lysed by sonication. The protein was purified by Ni-NTA (Qiagen), followed by TEV cleavage to remove the His6 tag, subtractive Ni-NTA (Qiagen), and gel filtration chromatography using an […] (GE Healthcare). Purified protein was stored in 20 mM Tris-HCl, pH 8.0, 100 mM NaCl, and 1 mM TCEP.
The assays were all performed in a buffer consisting of 20 mM Bicine (pH=7.6), 1 mM TCEP, 0.005% Bovine Skin Gelatin, and 0.002% Tween20, prepared on the day of use. Compounds in 100% DMSO (1 ul) were spotted into a polypropylene 384-well V-bottom plates (Greiner) using a Platemate Plus outfitted with a 384-channel head (Thermo Scientific). DMSO (1 ul) was added to Columns 11, 12, 23, 24, rows A-H for the maximum signal control and 1 ul of SAH, a known product and inhibitor of SMYD2, was added to columns 11, 12, 23, 24, rows I-P for the minimum signal control. A cocktail (40 ul) containing the SMYD2 enzyme was added by Multidrop Combi (Thermo-Fisher). The compounds were allowed to incubate with SMYD2 for 30 min at room temperature, then a cocktail (10 ul) containing ^3H-SAM and peptide was added to initiate the reaction (final volume=51 ul). The final concentrations of the components were as follows: SMYD2 was 1.5 nM, ^3H-SAM was 10 nM, and peptide was 60 nM, SAH in the minimum signal control wells was 1000 uM, and the DMSO concentration was 2%. The assays were stopped by the addition of non-radioactive SAM (10 ul) to a final concentration of 600 uM, which dilutes the ^3H-SAM to a level where its incorporation into the peptide substrate is no longer detectable. 50 ul of the reaction in the 384-well polypropylene plate was then transferred to a 384-well Flashplate and the biotinylated peptides were allowed to bind to the streptavidin surface for at least 1 hour before being washed three times with 0.1% Tween20 in a Biotek ELx405 plate washer. The plates were then read in a PerkinElmer TopCount plate reader to measure the quantity of ^3H-labeled peptide bound to the Flashplate surface, measured as disintegrations per minute (dpm) or alternatively, referred to as counts per minute (cpm).
Where dpm=disintegrations per minute, cmpd=signal in assay well, and min and max are the respective minimum and maximum signal controls.
Where top and bottom are the normally allowed to float, but may be fixed at 100 or 0 respectively in a 3-parameter fit. The Hill Coefficient normally allowed to float but may also be fixed at 1 in a 3-parameter fit. I is the compound concentration.
SMYD2 biochemical assay data for representative Compounds of the Disclosure are presented in Tables 1-3 in the column titled “SMYD2 Biochem IC50 (μM).”

T1 sequence (Q9NRG4 whole entry): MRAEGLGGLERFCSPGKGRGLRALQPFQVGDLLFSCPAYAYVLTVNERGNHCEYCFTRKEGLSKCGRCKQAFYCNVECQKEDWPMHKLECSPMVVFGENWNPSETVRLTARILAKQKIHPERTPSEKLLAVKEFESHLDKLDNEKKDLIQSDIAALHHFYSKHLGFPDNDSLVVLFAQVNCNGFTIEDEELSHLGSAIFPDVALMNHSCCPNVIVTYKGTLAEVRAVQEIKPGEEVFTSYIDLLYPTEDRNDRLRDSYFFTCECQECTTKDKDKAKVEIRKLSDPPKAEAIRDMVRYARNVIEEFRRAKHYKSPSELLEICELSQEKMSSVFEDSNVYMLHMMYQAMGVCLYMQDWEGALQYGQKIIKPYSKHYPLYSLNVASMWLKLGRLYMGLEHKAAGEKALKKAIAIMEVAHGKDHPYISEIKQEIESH

| SMILES | IC50 [µM] |
| --- | --- |
| COc1ccc(CN2C[C@@H](C)[C@H](NC(=O)c3cc(C4CC4)on3)C2)cc1 (racemic) [compound 149, (±)-trans-5-cyclopropyl-N-[1-[(4-methoxy-phenyl)methyl]-4-methylpyrrolidin-3-yl]-1,2-oxazole-3-carboxamide] | 45.6 |
| C[C@H]1CN(CC2CCCOC2)C[C@H]1NC(=O)c1cc(C2CC2)on1 (mixture of isomers) [compound 185, (±)-cis-5-cyclopropyl-N-[4-methyl-1-(oxan-3-ylmethyl)pyrrolidin-3-yl]-1,2-oxazole-3-carboxamide] | 4.92 |
| CO[C@H]1CN(C)C[C@H]1NC(=O)c1cc(C2CC2)on1 (racemic) [compound 123, (±)-cis-5-cyclopropyl-N-(4-methoxy-1-methylpyrrolidin-3-yl)-1,2-oxazole-3-carboxamide] | 49.8 |
| C[C@@H]1CN(Cc2ccc(Cl)cc2Cl)C[C@H]1NC(=O)c1cc(C2CC2)on1 (racemic) [compound 136, (±)-trans-5-cyclopropyl-N-[1-[(2,4-dichloro-phenyl)methyl]-4-methylpyrrolidin-3-yl]-1,2-oxazole-3-carboxamide] | > 50 |
| CC(C)N1C[C@H](C)[C@H](NC(=O)c2cc(C(C)(C)C)on2)C1 (racemic) [compound 201, (±)-cis-5-tert-butyl-N-[4-methyl-1-(propan-2-yl)pyrrolidin-3-yl]-1,2-oxazole-3-carboxamide] | > 50 |

Continued, values first:

| IC50 [µM] | SMILES |
| --- | --- |
| 5.72 | C[C@H]1CN(CCF)C[C@H]1NC(=O)c1cc(C2CC2)on1 (racemic) [compound 254, (±)-cis-5-cyclopropyl-N-[1-(2-fluoroethyl)-4-methylpyrrolidin-3-yl]-1,2-oxazole-3-carboxamide] |
| 1.62 | CC(C)CCN1C[C@H](C)[C@H](NC(=O)c2cc(C3CC3)on2)C1 (racemic) [compound 213, (±)-cis-5-cyclopropyl-N-[4-methyl-1-(3-methylbutyl)pyrrolidin-3-yl]-1,2-oxazole-3-carboxamide] |
| > 50 | CC(=O)Nc1ccccc1N1C[C@@H](C)[C@H](NC(=O)c2cc(C3CC3)on2)C1 (racemic) [compound 295, (±)-trans-5-cyclopropyl-N-[1-(2-acetamido-phenyl)-4-methylpyrrolidin-3-yl]-1,2-oxazole-3-carboxamide] |
| > 50 | C[C@H]1CN(CC2CCN(C)CC2)C[C@H]1NC(=O)c1cc(C2CC2)on1 (racemic) [compound 338, (±)-cis-5-cyclopropyl-N-{4-methyl-1-[(1-methylpiperidin-4-yl)methyl]pyrrolidin-3-yl}-1,2-oxazole-3-carboxamide] |
| > 50 | CC(N1C[C@H](C)[C@H](NC(=O)c2cc(C3CC3)on2)C1)C(F)(F)F (stereo in doubt) [compound 285, trans-5-cyclopropyl-N-[4-methyl-1-(1,1,1-trifluoropropan-2-yl)pyrrolidin-3-yl]-1,2-oxazole-3-carboxamide] |
| > 50 | C[C@@H]1CN(CC2CCN(C(=O)OC(C)(C)C)CC2)C[C@H]1NC(=O)c1cc(C2CC2)on1 (racemic) [compound 255, (±)-trans-tert-butyl 4-{[3-(5-cyclopropyl-1,2-oxazole-3-amido)-4-methylpyrrolidin-1-yl]methyl}piperidine-1-carboxylate] |
| > 50 | CC(C)N1C[C@@H](C)[C@H](NC(=O)c2cc(C(F)F)on2)C1 (racemic) [compound 281, (±)-trans-5-(difluoro-methyl)-N-[4-methyl-1-(propan-2-yl)pyrrolidin-3-yl]-1,2-oxazole-3-carboxamide] |
| 1.14 | CC(c1ccccc1)N1C[C@H](C)[C@H](NC(=O)c2cc(C3CC3)on2)C1 (mixture of isomers) [compound 317, (±)-cis-5-cyclopropyl-N-[4-methyl-1-(1-phenyl-ethyl)pyrrolidin-3-yl]-1,2-oxazole-3-carboxamide] |
| > 50 | CC(C)N1C[C@H](C)[C@H](NC(=O)c2cc(C3(O)COC3)on2)C1 (racemic) [compound 346, (±)-cis-5-(3-hydroxyoxetan-3-yl)-N-[4-methyl-1-(propan-2-yl)pyrrolidin-3-yl]-1,2-oxazole-3-carboxamide] |
| > 50 | CC(C)c1cc(C(=O)N[C@H]2C[C@@H](CNC(=O)c3ccccc3)N(C3CC3)C2)no1 (racemic) [compound 227, (±)-cis-N-[1-cyclo-propyl-5-[(phenyl-formamido)methyl]pyrrolidin-3-yl]-5-(propan-2-yl)-1,2-oxazole-3-carboxamide] |
| > 50 | C[C@H]1CN(Cc2c(Cl)cccc2Cl)C[C@H]1NC(=O)c1cc(C2CC2)on1 (racemic) [compound 322, (±)-cis-5-cyclopropyl-N-{1-[(2,6-dichloro-phenyl)methyl]-4-methylpyrrolidin-3-yl}-1,2-oxazole-3-carboxamide] |
| > 50 | C[C@@H]1CN(C2CCS(=O)(=O)CC2)C[C@H]1NC(=O)c1cc(C2CC2)on1 (racemic) [compound 225, (±)-trans-5-cyclopropyl-N-[1-(1,1-dioxo-1??- thian-4-yl)-4-methyl-pyrrolidin-3-yl]-1,2-oxazole-3-carboxamide] |
| 2.46 | C[C@H]1CN(CCc2ccccc2)C[C@H]1NC(=O)c1cc(C2CC2)on1 (racemic) [compound 291, (±)-cis-5-cyclopropyl-N-[4-methyl-1-(2-phenylethyl)pyrrolidin-3-yl]-1,2-oxazole-3-carboxamide] |
| > 50 | CNC(=O)CN1C[C@@H](C)[C@H](NC(=O)c2cc(C3CC3)on2)C1 (racemic) [compound 286, (±)-trans-5-cyclopropyl-N-{4-methyl-1-[(methyl-carbamoyl)methyl]pyrrolidin-3-yl}-1,2-oxazole-3-carboxamide] |

Same assay, conditions: Table 1; average of n = 1 to n = 50; read-out: SMYD2 Biochem IC50

| IC50 [µM] | SMILES |
| --- | --- |
| 33.6 | C[C@@H]1CN(C)C[C@H]1NC(=O)c1cc(C2CC2)on1 (racemic) [compound 39] |

Same assay, conditions: Table 2; average of n = 1 to n = 50; read-out: SMYD2 Biochem IC50

| IC50 [µM] | SMILES |
| --- | --- |
| > 50 | C[C@@H]1CN(C2CCN(C(=O)OC(C)(C)C)CC2)C[C@H]1NC(=O)c1cc(C2CC2)on1 (racemic) [compound 103, (±)-trans-tert-butyl 4-((3S,4R)-3-(5-cyclopropylisoxazole-3-carboxamido)-4-methylpyrrolidin-1-yl)piperidine-1-carboxylate] |
| 3 | CCN1C[C@H](C)[C@H](NC(=O)c2cc(C3CC3)on2)C1 (racemic) [compound 110, (±)-cis-5-cyclopropyl-N-(1-ethyl-4-methylpyrrolidin-3-yl)isoxazole-3-carboxamide] |
| > 50 | C[C@@H]1CN(C2CCNCC2)C[C@H]1NC(=O)c1cc(C2CC2)on1 (racemic) [compound 104, (±)-trans-5-cyclopropyl-N-((3S,4R)-4-methyl-1-(piperidin-4-yl)pyrrolidin-3-yl)isoxazole-3-carboxamide] |
| > 50 | CC(=O)N1C[C@@H](C)[C@H](NC(=O)c2cc(C3CC3)on2)C1 (racemic) [compound 89, (±)-trans-N-(1-acetyl-4-methylpyrrolidin-3-yl)-5-cyclopropylisoxazole-3-carboxamide] |
| 2.4 | CC(C)N1C[C@H](C)[C@H](NC(=O)c2cc(C3CC3)on2)C1 (racemic) [compound 65, (±)-cis-5-cyclopropyl-N-(1-isopropyl-4-methylpyrrolidin-3-yl)isoxazole-3-carboxamide] |
| > 50 | C[C@@H]1CN(Cc2cccnc2)C[C@H]1NC(=O)c1cc(C2CC2)on1 (racemic) [compound 84, (±)-trans-5-cyclopropyl-N-(4-methyl-1-(pyridin-3-ylmethyl)pyrrolidin-3-yl)isoxazole-3-carboxamide] |
